ChEMBL document CHEMBL5678810

Columns and labels:
[1] = target: STE20-like serine/threonine-protein kinase (Homo sapiens) (UniProt Q9H2G2); assay: Inhibition of T7 bacteriophage fused human SLK at 10 uM by KINOMEscan analysis relative to control
[2] = target: T1, Serine/threonine-protein kinase TBK1 (Homo sapiens) (UniProt Q9UHD2); assay: Inhibition of T7 bacteriophage fused human TBK1 at 10 uM by KINOMEscan analysis relative to control
T1 sequence (whole entry): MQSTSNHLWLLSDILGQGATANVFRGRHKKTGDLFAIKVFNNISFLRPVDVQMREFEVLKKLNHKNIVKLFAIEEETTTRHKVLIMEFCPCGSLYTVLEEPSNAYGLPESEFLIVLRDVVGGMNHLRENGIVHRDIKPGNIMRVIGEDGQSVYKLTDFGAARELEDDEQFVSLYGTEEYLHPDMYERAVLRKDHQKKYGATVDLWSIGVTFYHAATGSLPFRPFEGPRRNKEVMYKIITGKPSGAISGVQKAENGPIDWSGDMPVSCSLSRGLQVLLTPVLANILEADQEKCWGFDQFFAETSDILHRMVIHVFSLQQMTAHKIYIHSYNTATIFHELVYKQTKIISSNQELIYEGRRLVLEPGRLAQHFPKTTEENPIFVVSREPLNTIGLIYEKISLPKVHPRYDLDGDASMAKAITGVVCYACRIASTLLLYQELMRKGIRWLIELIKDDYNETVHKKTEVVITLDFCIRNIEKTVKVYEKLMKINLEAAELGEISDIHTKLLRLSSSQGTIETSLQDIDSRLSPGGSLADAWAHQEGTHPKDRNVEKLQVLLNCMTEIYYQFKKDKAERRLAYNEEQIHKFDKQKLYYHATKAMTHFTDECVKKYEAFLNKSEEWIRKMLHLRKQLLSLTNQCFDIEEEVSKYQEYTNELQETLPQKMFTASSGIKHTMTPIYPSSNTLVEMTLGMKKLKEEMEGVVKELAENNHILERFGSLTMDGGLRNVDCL

[3] = target: Wee1-like protein kinase 2 (Homo sapiens) (UniProt P0C1S8); assay: Inhibition of T7 bacteriophage fused human WEE2 at 10 uM by KINOMEscan analysis relative to control
[4] = target: T2, Mitogen-activated protein kinase kinase kinase 19 (Homo sapiens) (UniProt Q56UN5); assay: Inhibition of T7 bacteriophage fused human YSK4 at 10 uM by KINOMEscan analysis relative to control
T2 sequence (whole entry): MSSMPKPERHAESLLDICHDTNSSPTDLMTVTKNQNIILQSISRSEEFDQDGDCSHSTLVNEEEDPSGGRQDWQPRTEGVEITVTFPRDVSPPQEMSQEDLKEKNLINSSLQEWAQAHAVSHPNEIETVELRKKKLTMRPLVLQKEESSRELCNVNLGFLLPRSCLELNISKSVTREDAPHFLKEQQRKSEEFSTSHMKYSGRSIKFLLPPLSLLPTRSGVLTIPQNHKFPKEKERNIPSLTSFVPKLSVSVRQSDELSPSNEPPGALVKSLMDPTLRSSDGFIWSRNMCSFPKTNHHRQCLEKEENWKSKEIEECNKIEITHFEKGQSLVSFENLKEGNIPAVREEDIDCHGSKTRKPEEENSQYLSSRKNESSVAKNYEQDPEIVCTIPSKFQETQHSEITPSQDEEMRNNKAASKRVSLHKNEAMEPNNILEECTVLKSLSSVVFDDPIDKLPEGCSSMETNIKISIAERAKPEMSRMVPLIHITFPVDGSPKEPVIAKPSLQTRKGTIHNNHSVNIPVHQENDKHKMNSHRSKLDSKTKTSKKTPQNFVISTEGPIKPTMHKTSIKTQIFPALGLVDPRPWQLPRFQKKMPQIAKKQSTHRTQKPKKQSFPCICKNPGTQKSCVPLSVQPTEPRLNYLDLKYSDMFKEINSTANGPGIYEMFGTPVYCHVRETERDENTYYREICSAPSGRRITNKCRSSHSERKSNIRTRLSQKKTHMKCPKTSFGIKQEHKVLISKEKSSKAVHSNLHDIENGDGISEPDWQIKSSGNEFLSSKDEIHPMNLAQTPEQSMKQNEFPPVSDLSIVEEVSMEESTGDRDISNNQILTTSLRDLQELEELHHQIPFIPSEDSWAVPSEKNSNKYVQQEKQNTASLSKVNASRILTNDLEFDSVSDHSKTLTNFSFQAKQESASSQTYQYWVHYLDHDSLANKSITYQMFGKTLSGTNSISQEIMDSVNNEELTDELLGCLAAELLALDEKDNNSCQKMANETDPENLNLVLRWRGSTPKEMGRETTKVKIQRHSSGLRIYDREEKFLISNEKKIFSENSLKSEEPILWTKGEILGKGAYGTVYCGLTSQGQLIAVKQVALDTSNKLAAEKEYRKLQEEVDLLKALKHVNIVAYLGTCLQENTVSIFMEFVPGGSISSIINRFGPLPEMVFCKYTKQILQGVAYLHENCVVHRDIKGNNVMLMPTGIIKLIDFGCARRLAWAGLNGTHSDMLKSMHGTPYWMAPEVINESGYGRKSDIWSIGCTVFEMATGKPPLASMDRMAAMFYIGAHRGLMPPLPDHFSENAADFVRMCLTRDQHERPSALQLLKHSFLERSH

Wee1-like protein kinase 2 (Homo sapiens), sequence (P0C1S8 whole entry, looked up, the tested form may be a part): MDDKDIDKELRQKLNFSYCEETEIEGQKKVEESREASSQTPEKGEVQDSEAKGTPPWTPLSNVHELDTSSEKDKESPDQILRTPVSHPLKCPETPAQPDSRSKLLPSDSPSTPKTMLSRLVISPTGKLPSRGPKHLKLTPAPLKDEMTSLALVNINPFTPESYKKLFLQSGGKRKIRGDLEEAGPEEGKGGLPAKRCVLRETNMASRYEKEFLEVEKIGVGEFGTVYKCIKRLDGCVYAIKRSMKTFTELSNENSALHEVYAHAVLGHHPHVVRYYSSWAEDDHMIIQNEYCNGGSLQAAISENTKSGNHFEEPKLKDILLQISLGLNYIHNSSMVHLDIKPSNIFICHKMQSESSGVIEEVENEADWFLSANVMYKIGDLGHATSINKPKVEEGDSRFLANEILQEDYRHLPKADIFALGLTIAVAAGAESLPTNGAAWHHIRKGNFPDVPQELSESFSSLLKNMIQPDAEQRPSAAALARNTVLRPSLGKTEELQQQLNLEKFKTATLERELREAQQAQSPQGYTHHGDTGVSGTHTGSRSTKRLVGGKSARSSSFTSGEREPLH
STE20-like serine/threonine-protein kinase (Homo sapiens), sequence (Q9H2G2 whole entry, looked up, the tested form may be a part): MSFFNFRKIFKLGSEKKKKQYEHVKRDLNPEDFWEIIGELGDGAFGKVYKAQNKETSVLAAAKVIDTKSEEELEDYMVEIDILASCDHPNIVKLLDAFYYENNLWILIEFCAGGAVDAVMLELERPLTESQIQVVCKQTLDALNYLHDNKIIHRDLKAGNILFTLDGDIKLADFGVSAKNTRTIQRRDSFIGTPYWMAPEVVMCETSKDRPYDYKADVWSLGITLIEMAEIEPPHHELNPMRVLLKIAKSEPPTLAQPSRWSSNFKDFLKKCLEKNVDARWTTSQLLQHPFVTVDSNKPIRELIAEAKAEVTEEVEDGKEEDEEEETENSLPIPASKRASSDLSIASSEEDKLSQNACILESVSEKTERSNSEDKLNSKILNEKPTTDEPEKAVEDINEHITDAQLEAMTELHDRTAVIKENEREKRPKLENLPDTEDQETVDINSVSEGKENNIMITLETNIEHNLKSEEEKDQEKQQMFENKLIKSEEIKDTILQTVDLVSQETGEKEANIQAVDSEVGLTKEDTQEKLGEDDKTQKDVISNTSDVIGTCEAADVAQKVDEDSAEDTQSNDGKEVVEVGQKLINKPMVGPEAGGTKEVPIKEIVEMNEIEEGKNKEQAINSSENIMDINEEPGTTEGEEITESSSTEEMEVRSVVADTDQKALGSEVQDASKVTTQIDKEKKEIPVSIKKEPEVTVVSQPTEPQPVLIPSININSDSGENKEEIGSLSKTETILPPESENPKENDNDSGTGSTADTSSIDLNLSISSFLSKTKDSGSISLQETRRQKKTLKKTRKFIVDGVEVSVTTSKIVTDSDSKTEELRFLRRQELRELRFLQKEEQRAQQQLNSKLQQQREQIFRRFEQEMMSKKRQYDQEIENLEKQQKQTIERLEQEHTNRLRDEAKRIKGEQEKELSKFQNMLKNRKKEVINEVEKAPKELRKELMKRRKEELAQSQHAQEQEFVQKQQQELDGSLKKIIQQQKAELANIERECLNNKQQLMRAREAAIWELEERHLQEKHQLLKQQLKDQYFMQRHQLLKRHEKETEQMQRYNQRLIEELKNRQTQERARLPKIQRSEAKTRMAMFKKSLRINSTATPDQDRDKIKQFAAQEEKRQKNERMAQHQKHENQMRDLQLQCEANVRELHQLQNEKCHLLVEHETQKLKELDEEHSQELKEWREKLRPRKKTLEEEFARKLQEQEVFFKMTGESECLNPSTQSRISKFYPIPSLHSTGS

SMILES | inhibition [1] [%] | inhibition [2] [%] | inhibition [3] [%] | inhibition [4] [%]
CCOc1cc(C(=O)N2CCC(N3CCN(C)CC3)CC2)ccc1Nc1ncc2c(n1)N(C1CCCC1)c1ccccc1C(=O)N2C | 100 | 100 | 100 | 100
COc1cc(N2CCC(N3CCN(C)CC3)CC2)ccc1Nc1ncc2c(n1)N(C)c1ccccc1C(=O)N2C | 100 | 97 | 100 | 99
COc1cc(C(=O)N2CCC(N3CCN(C)CC3)CC2)ccc1Nc1ncc2c(n1)N(C1CCCC1)c1ccccc1C(=O)N2C | 100 | 100 | 100 | 100
